Test results as given in patent US8138314B2, “Compositions and methods of monoclonal and polyclonal antibodies specific for T cell subpopulations” (Beth Israel Deaconess Medical Center, Inc., priority 2000, dated 2012).

What was measured:
Format in all cases: cell-based, human
invariant NK T cells = assay: 6B11 FACS sort or magnetic bead immunoaffinity purification of PBMC followed by expansion; conditions: for Yield of invariant T cells: addition during expansion of 6B11 bead purified cells (FIGS. 12-17)
Method: Starting with PBMC in which approximately 0.05% of the lymphocytes in PBMC are invariant T cells, approximately 5-30% of the purified and expanded cells were invariant T cells.
PBMC or another tissue source is blocked with autologous serum at 4° C. An antibody reactive with invariant T cells (e.g., 6B11 or 3A6 antibody) is added at a ratio of about 1-10 μg antibody/10^7-8 PBMC and incubated for 20 minutes at 4° C. The antibody used in this method may be directly labeled with a conjugate such as FITC or biotin, or the antibody may be indirectly labeled with second reagent (e.g., anti-IgG-Fluorochrome or streptavidin-Fluorochrome). One or more other antibodies labeled with different fluorophores may also be added (FIGS. 7A-7C and 9). The solution of cells and antibodies is then washed using PBS or any other physiological buffer to remove unbound antibody.
If desired, the settings of the FACS cell sorter may be adjusted using either a positive (e.g., general anti-T cell antibody) or negative control antibody. The sample of interest may be analyzed at a rate of approximately 100 million cells per hour using a high speed FACS sorter (e.g., ‘MoFlo’FACS sorter). The purified T cells may be expanded in T cell media [e.g., 10% Fetal Bovine or human autologous or AB pooled serum in RPMI-1640 or equivalent media supplemented with buffer (e.g. Hepes), glutamine, and antibiotic (e.g., gentamicin)] in the presence of a mitogen such as PHA, an anti-CD3 antibody, the 6B11 antibody, the 3A6 antibody, and/or α-GalCer antigenic stimulus CD3 monoclonal antibody (Exley et al. 1997 and 1998, supra; Wilson et al., Nature 391:177, 1998). The antibody may be in solution or plate bound. Irradiated autologous feeders and IL-2 (10-100 U/ml) may also be added immediately or added at any time point during expansion. IL-7 (˜1-10 ng/ml) and/or IL-15 (˜1-10 ng/ml) may increase invariant NK T cells yields (e.g. Wilson et al. 1998, supra; van der Vliet et al. Journal of Immunological Methods 247:61-72, 2000). Dexamethasone or a related selective immune suppressive agent (˜1 μM) may preferentially enhance the growth of invariant NK T cells while inhibiting growth of conventional T cells (e.g. Milner et al., J. Immunol. 163(5):2522-25229, 1999). The media is replaced about twice a week with fresh media. During or subsequent to expansion (e.g., 2-4 weeks after expansion has begun), the T cells may be phenotypically analyzed by FACS. This analysis may be performed by staining with 6B11, anti-Vα24, anti-Vβ11, anti-CD4, anti-CD8αβ, or anti-CD161 antibodies.
PBMC or another tissue source is blocked with 1-10% autologous serum by mixing at 4° C. in PBS or other physiological buffer. One or more antibodies that are reactive with invariant T cells (e.g., 6B11 or 3A6 antibody) is added at a ratio of about 1-10 μg monoclonal antibody/10^7-8 PBMC is incubated for 20 minutes at 4° C. The antibody used in this method may be directly labeled with a conjugate such as FITC or biotin or the antibody may be indirectly labeled with second reagent (e.g., anti-IgG-Fluorochrome or streptavidin-Fluorochrome). One or more other antibodies labeled with different fluorophores may also be added (FIGS. 7A-7C and 9). The solution of cells and antibodies is then washed using PBS or any other physiological buffer. Magnetic beads, such as ˜10-100 μl Miltenyi MACS Microbeads Anti-mouse IgG #484 or MACS Steptavidin Microbeads #481 per 10^7-8 PBMC; 10^5-7 Dynal Anti-IgG #M450 beads per 10^7-8 PBMC are added and the solution is mix at 4° C. […] The washed, purified cells are placed into multi-wells with T cell media [10% Fetal Bovine or human autologous or AB pooled serum in RPMI-1640 or equivalent media supplemented with buffer (e.g. Hepes), glutamine, and antibiotic (e.g. gentamicin)]. The cells may be expanded using a monoclonal antibody that is directly bound to the beads or in solution. […]

[1] = test system: Vα24^+ Vβ11^+ invariant NK T cells; assay: Ex vivo expansion of FACS purified Vα24^+ T cells with α-GalCer and autologous irradiated PBMCs, flow cytometry
Method: (§1) Peripheral blood (10-20 ml) was drawn in heparin containing tubes from healthy donors and prostate cancer patients who had given their informed consent. PBMCs were isolated using Ficoll-Paque (Amersham Pharmacia, Uppsala, Sweden). Vα24 positive T cells were stained with an anti-Vα24 monoclonal antibody (C15) (Coulter, Miami, Fla.) followed by a goat anti-mouse IgG (H^+L) FITC conjugate (KPL, Gaithersburg, Md.) and were sorted by high speed FACS (Modular Flow FACS, Cytomation, Boulder, Colo.) (Dellabona et al., J. Exp. Med. 180:1171, 1994). Autologous PBMCs were irradiated (5000 rads) and used as APCs. The FACS purified Vα24^+ cells were initially co-cultured in 96 well flat bottomed plates (approximately 20,000 per well) with equal numbers of autologous irradiated PBMCs in the presence of α-GalCer (50 ng/ml, KRN7000, Kirin Brewery Co., Gunma, Japan) and recombinant IL-2 (100 U/ml) (National Cancer Institute, Bethesda, Md.). Cultures were then gradually expanded into 24 well plates using the same medium. In some cultures, human recombinant IL-12 (1 ng/ml) (Genetics Institute, Cambridge, Mass.) was added during the last week of culture.
Phenotypic analysis of α-GalCer expanded cells was performed by two or three color flow cytometery after three to four weeks in culture. Previous reports have shown that dual staining for Vα24 and Vβ11 is a marker of invariant NK T cells, as Vα24 and Vβ11 are used very infrequently by bulk T cells (Dellabona et al., J. Exp. Med. 180:1171, 1994; Exley et al., J. Exp. Med. 186:109, 1997; Prussin and Foster J. Immunol. 159:5862, 1997). Antibodies used were anti-Vα24 PE, anti-Vβ11 FITC, anti-CD8β PE (Immunotech), anti-CD3 Cychrome, anti-CD161 PE, and anti-CD4 Cychrome (PharMingen, La Jolla, Calif.). As described previously (Exley et al., J. Exp. Med. 186:109, 1997; Exley et al., J. Exp. Med. 188:867, 1998), approximately 1×10^6 cells were suspended in 50 μl of FACS buffer (phosphate buffered saline with 1% fetal bovine serum and 0.1% NaN3) in single wells of 96 well plates (Exley et al., J. Exp. Med. 186:109, 1997; Exley et al, J. Exp. Med. 188:867, 1998). Non-specific antibody binding was blocked by pre-incubating cells with 10% human serum for 15 minutes on ice. Antibodies were then added to cell suspensions and incubated for 20 minutes on ice. Cells were washed twice with FACS buffer and analyzed using a FACScan (Becton Dickinson) with Cell Quest Software.
Due to the small numbers of invariant NK T cells in peripheral blood, one round of ex vivo expansion was carried out to further assess the frequency and function of these cells. Invariant NK T cells from healthy donors and advanced prostate cancer patients were isolated from peripheral blood through an initial FACS purification with a Vα24 specific monoclonal antibody, followed by selective expansion in vitro for three to four weeks with α-GalCer and autologous irradiated PBMCs as a source of APCs. T cells were then analyzed by dual staining with Vα24 and Vβ11 or 6B11 monoclonal antibodies.

[2] = test system: prostate cancer derived invariant NK T cells; assay: IL-12 treatment of prostate cancer derived invariant NK T cells during last week of culture, cytokine ELISA
Method: as §1, with “Cultures were then gradually expanded into 24 well plates using the same medium. In some cultures, human recombinant IL-12 (1 ng/ml) (Genetics Institute, Cambridge, Mass.) was added during the last week of culture.” left out
In addition to being present at reduced levels, invariant NK T cells have reduced activity in prostate cancer patients. […] Released cytokine levels were determined in triplicates by capture ELISA with matched antibody pairs in relation to cytokine standards (Endogen, Inc. Cambridge, Mass.). […]
As invariant NK T cells may contribute to the anti-tumor effects of IL-12, it was next determined whether these cancer patient derived cells could respond to IL-12. […]

[3] = test system: CD1d-reactive Vα24^+Vβ11^+ T cell lines; assay: Ex vivo expansion of invariant NK T cell lines with IL-12, stimulation with anti-CD3 and CD161 antibody; conditions: for IFN-γ / IL-4 / Proliferation: plate-bound anti-CD3 and excess CD161 antibody
Text: NK T cells, CD1d-reactive T cells, or JαQ^+ T cells may be biased towards Th1-like NK or lymphokine-activated killer (LAK)-like cytotoxicity of invariant T cells, as well as, IFN-γ production to potentially augment their in vivo anti-tumor or anti-pathogen activity.

[4] = expansion using α-GalCer after expansion using 6B11
[5] = addition during expansion, at the concentrations tested (FIGS. 12-17)

CCCCCCCCCCCCCCCCCCCCCCCCCC(=O)N[C@@H](CO[C@H]1O[C@H](CO)[C@H](O)[C@H](O)[C@H]1O)[C@H](O)[C@H](O)CCCCCCCCCCCCCC [α-GalCer, α-galactosylceramide]
Number of invariant T cells (invariant NK T cells; [4]): did increase the number of invariant T cells
Purity of invariant T cells (invariant NK T cells; [4]): did not improve the purity of invariant T cells
Invariant NK T cells among expanded cells ([1]; androgen ablation refractory prostate cancer patient (FIG. 21B)): 13.6%
Invariant NK T cells among expanded cells ([1]; androgen ablation treated prostate cancer patient in remission (FIG. 21C)): 75%
Invariant NK T cells among expanded cells ([1]; healthy donor (FIG. 21A)): 98.5%
Vα24^+ Vβ11^+ population of total cells ([1]; healthy donor, α-GalCer and autologous irradiated PBMCs (FIG. 20B)): 94.4%
Recovery of Vα24^+ Vβ11^+ invariant NK T cells, mean ([1]; healthy donors (FIG. 21D)): > 80%
Recovery of Vα24^+ Vβ11^+ invariant NK T cells, mean ([1]; series of advanced androgen independent prostate cancer patients (FIG. 21D)): 10%
Expanded Vα24^+ Vβ11^+ T cells expressing CD161 ([1]; series of healthy donors, each donor): > 70%

IL-15: cytokine added to T cell medium at 10 ng/ml
Yield of invariant T cells (invariant NK T cells): increased the yield of invariant T cells
Purity of invariant T cells (invariant NK T cells; [5]): did not increase the purity of invariant T cells

phytohemagglutinin [PHA]
Vα24^+ Vβ11^+ T cell population after stimulation ([1]; FACS purified Vα24^+ T cells stimulated with mitogen (FIG. 20A)): yielded only a minor population of Vα24^+ Vβ11^+ T cells

B1: IL-7: cytokine added to T cell medium at 10 ng/ml (protein, UniProt P13232 26-177, looked up)
Interleukin-7: DCDIEGKDGKQYESVLMVSIDQLLDSMKEIGSNCLNNEFNFFKRHICDANKEGMFLFRAARKLRQFLKMNSTGDFDLHLLKVSEGTTILLNCTGQVKGRKPAALGEAQPTKSLEENKSLKEQKKLNDLCFLKRLLQEIKTCWNKILMGTKEH
Yield of invariant T cells (invariant NK T cells): increased the yield of invariant T cells
Purity of invariant T cells (invariant NK T cells; [5]): did not increase the purity of invariant T cells

B2: IL-12: human recombinant IL-12 (Genetics Institute), cytokine biasing T cells towards Th1 responses (protein, UniProt P29459 23-219; P29460 23-328, looked up)
Interleukin-12 subunit alpha: RNLPVATPDPGMFPCLHHSQNLLRAVSNMLQKARQTLEFYPCTSEEIDHEDITKDKTSTVEACLPLELTKNESCLNSRETSFITNGSCLASRKTSFMMALCLSSIYEDLKMYQVEFKTMNAKLLMDPKRQIFLDQNMLAVIDELMQALNFNSETVPQKSSLEEPDFYKTKIKLCILLHAFRIRAVTIDRVMSYLNAS
Interleukin-12 subunit beta: IWELKKDVYVVELDWYPDAPGEMVVLTCDTPEEDGITWTLDQSSEVLGSGKTLTIQVKEFGDAGQYTCHKGGEVLSHSLLLLHKKEDGIWSTDILKDQKEPKNKTFLRCEAKNYSGRFTCWWLTTISTDLTFSVKSSRGSSDPQGVTCGAATLSAERVRGDNKEYEYSVECQEDSACPAAEESLPIEVMVDAVHKLKYENYTSSFFIRDIIKPDPPKNLQLKPLKNSRQVEVSWEYPDTWSTPHSYFSLTFCVQVQGKSKREKKDRVFTDKTSATVICRKNASISVRAQDRYYSSSWSEWASVPCS
IFN-γ production ([2]; 1 ng/ml during the last week of culture): marked increase in IFN-γ production
Ratios of IFN-γ/IL-4 production ([2]; 1 ng/ml during the last week of culture (FIG. 22E)): comparable to those in the healthy donors
IFN-γ/IL-4 ([3]; line 1, established with IL-12): >100
IFN-γ ([3]; line 1, established with IL-12): >500
IL-4 ([3]; line 1, established with IL-12): 4.8
Proliferation ([3]; line 1, established with IL-12): 56593
IFN-γ/IL-4 ([3]; line 2, established with IL-12): 207
IFN-γ ([3]; line 2, established with IL-12): 331.8
IL-4 ([3]; line 2, established with IL-12): 1.6
Proliferation ([3]; line 2, established with IL-12): 42499
